Test results as given in US20250082570A1, “COMBINATION THERAPY FOR TREATING NON-TUBERCULOUS MYCOBACTERIAL LUNG DISEASE” (priority 2021, published 2025).
Like-named read-outs stand apart in the source and are kept apart here.

Test system: M abscessus ATCC 19977 Type strain
Assay: checkerboard minimum inhibitory concentration (MIC) assay with FICI calculation
Type: cell-based
Conditions: for MIC: 168 h; for Active Agent-Y MIC Combination: MIC of the labelled Antiinfective-Y in combination with amikacin; for Definition (interpretation of FICI) / FICI (Fractional Inhibitory Concentration Index): labelled Antiinfective-Y in combination with amikacin
[1] = read-out: Active Agent-Y MIC Alone
[2] = Antiinfective-Y alone, M abscessus ATCC 19977, 37° C., 7 days, absorbance 595 nm, read-out: Active Agent-Y MIC Alone

Structure (SMILES)	MIC (amikacin alone (column 12 of the checkerboard plate run with the row's Antiinfective-Y), M abscessus ATCC 19977, 37° C., 7 days, absorbance 595 nm, read-out: Amikacin (Active Agent-X) MIC Alone)	Amikacin (Active Agent-X) MIC Alone (amikacin alone (column 12 of the checkerboard plate run with the row's Antiinfective-Y), M abscessus ATCC 19977, 37° C., 7 days, absorbance 595 nm)	MIC [1]	Active Agent-Y MIC Combination (M abscessus ATCC 19977, 7 days)	Definition (interpretation of FICI) (M abscessus ATCC 19977)	FICI (Fractional Inhibitory Concentration Index) (M abscessus ATCC 19977)	MIC [2]
NCC[C@H](O)C(=O)N[C@@H]1C[C@H](N)[C@@H](O[C@H]2O[C@H](CN)[C@@H](O)[C@H](O)[C@H]2O)[C@H](O)[C@H]1O[C@H]1O[C@H](CO)[C@@H](O)[C@H](N)[C@H]1O [Amikacin]	2 µg/mL	1 µg/mL					
COc1nc2ccc(Br)cc2cc1[C@@H](c1ccccc1)[C@@](O)(CCN(C)C)c1cccc2ccccc12 [Bedaquiline]			2 µg/mL	0.125 µg/mL	Synergy (<0.5)	0.09	
C[C@@H](O)[C@H]1C(=O)N2C(C(=O)[O-])=C(SC3Cn4cnc[n+]4C3)[C@H](C)[C@H]12 (some centres unmarked) [Biapenem]				0.0625 µg/mL	Synergy (<0.5)	0.07	8 µg/mL
C=CC1=C(C(=O)O)N2C(=O)[C@@H](NC(=O)/C(=N\O)c3csc(N)n3)[C@H]2SC1 [Cefdinir]				0.5 µg/mL	Synergy (<0.5)	0.13	8 µg/mL
CC[C@H]1OC(=O)[C@H](C)[C@@H](O[C@H]2C[C@@](C)(OC)[C@@H](O)[C@H](C)O2)[C@H](C)[C@@H](O[C@@H]2O[C@H](C)C[C@H](N(C)C)[C@H]2O)[C@](C)(OC)C[C@@H](C)C(=O)[C@H](C)[C@@H](O)[C@]1(C)O [Clarithromycin]				0.25 µg/mL	Additive	2.50	0.5 µg/mL
CC(C)/N=c1\cc2n(-c3ccc(Cl)cc3)c3ccccc3nc-2cc1Nc1ccc(Cl)cc1 [Clofazimine]			2 µg/mL	0.0625 µg/mL	Synergy (<0.5)	0.16	
C[C@@H](O)[C@H]1C(=O)N2C(C(=O)O)=C(S[C@@H]3CN[C@H](CNS(N)(=O)=O)C3)[C@H](C)[C@H]12 [Doripenem]				0.25 µg/mL	Synergy (<0.5)	0.31	4 µg/mL
CC[C@@H](CO)NCCN[C@@H](CC)CO [Ethambutol]			16 µg/mL	4 µg/mL	Synergy (<0.5)	0.38	
C[C@@H](O)[C@H]1C(=O)N2C(C(=O)O)=C(SCCN=CN)C[C@H]12 [Imipenem]				0.25 µg/mL	Synergy (<0.5)	0.38	2 µg/mL
C[C@H]1COc2c(N3CCN(C)CC3)c(F)cc3c(=O)c(C(=O)O)cn1c23 [Levofloxacin]			4 µg/mL	0.0625 µg/mL	Synergy (<0.5)	0.14	
CC(=O)NC[C@H]1CN(c2ccc(N3CCOCC3)c(F)c2)C(=O)O1 [Linezolid]				2 µg/mL	Additive	3.00	2 µg/mL
COc1c(N2C[C@@H]3CCCN[C@@H]3C2)c(F)cc2c(=O)c(C(=O)O)cn(C3CC3)c12 [Moxifloxacin]			1 µg/mL	0.125 µg/mL	Synergy (<0.5)	0.38	
CO[C@H]1/C=C/O[C@@]2(C)Oc3c(C)c(O)c4c(c3C2=O)C2=NC3(CCN(CC(C)C)CC3)NC2=C(NC(=O)/C(C)=C\C=C\[C@H](C)[C@H](O)[C@@H](C)[C@@H](O)[C@@H](C)[C@H](OC(C)=O)[C@@H]1C)C4=O [Rifabutin]				0.0625 µg/mL	Synergy (<0.5)	0.31	1 µg/mL
CO[C@H]1/C=C/O[C@@]2(C)Oc3c(C)c(O)c4c(O)c(c(/C=N/N5CCN(C)CC5)c(O)c4c3C2=O)NC(=O)/C(C)=C\C=C\[C@H](C)[C@H](O)[C@@H](C)[C@@H](O)[C@@H](C)[C@H](OC(C)=O)[C@@H]1C [Rifampicin]			8 µg/mL	0.5 µg/mL	Synergy (<0.5)	0.31	
C[C@@H](O)[C@H]1C(=O)N2C(C(=O)O)=C(SC3CN(C4=NCCS4)C3)[C@H](C)[C@H]12 [Tebipenem]				0.25 µg/mL	Synergy (<0.5)	0.28	8 µg/mL
Cn1nnc(-c2ccc(-c3ccc(N4C[C@H](CO)OC4=O)cc3F)cn2)n1 [Tedizolid]				0.5 µg/mL	Additive	3.00	0.5 µg/mL
COc1ccc2cc1Oc1ccc(cc1)C[C@H]1c3cc(c(OC)cc3CCN1C)Oc1c(OC)c(OC)cc3c1[C@H](C2)N(C)CC3 [Tetrandrine]			64 µg/mL	8 µg/mL	Synergy (<0.5)	0.25	
CN(C)c1cc(NC(=O)CNC(C)(C)C)c(O)c2c1C[C@H]1C[C@H]3[C@H](N(C)C)C(O)=C(C(N)=O)C(=O)[C@@]3(O)C(O)=C1C2=O [Tigecycline]			2 µg/mL	0.5 µg/mL	Additive	0.75	
CN[C@H](CC(C)C)C(=O)N[C@H]1C(=O)N[C@@H](CC(N)=O)C(=O)N[C@H]2C(=O)N[C@H]3C(=O)N[C@H](C(=O)N[C@H](C(=O)O)c4cc(O)cc(O)c4-c4cc3ccc4O)[C@H](O)c3ccc(c(Cl)c3)Oc3cc2cc(c3O[C@@H]2O[C@H](CO)[C@@H](O)[C@H](O)[C@H]2O[C@H]2C[C@](C)(N)[C@H](O)[C@H](C)O2)Oc2ccc(cc2Cl)[C@H]1O [Vancomycin]			4 µg/mL	1 µg/mL	Additive	0.50	
